By pIC50 is commonly meant the negative decadic logarithm of the IC50, by convention in mol/L.

For 9 compounds, IC50 results are on record in patent US20260022142A1, “MACROCYCLIC IMMUNOMODULATORS” (Bristol-Myers Squibb Company, priority 2022, published 2026).

The structures appear in SMILES notation. pIC50: −log10 of the molar value. Bridge positions count the residues as written; N and C are the ends. Square brackets hold non-standard residues; d marks the D form. Peptide text beside a SMILES is read from it. * marks the point of attachment. ξ: configuration not given here. Phe(4-CONH2) = NC(=O)c1ccc(C[C@H](N)C(=O)O)cc1; Bip = N[C@@H](Cc1ccc(-c2ccccc2)cc1)C(=O)O; Phe(4-NH2) = Nc1ccc(C[C@H](N)C(=O)O)cc1; Phe(3-Me) = Cc1cccc(C[C@H](N)C(=O)O)c1; Val(3-OH) = CC(C)(O)[C@H](N)C(=O)O; Cha = N[C@@H](CC1CCCCC1)C(=O)O; aThr = C[C@H](O)[C@H](N)C(=O)O; Thr(3ξ) = CC(O)[C@H](N)C(=O)O; NMeNle = CCCC[C@H](NC)C(=O)O; Dap(Me) = CNC[C@H](N)C(=O)O; Carboxymethyl = O=C(O)C*; Orn = NCCC[C@H](N)C(=O)O; Aun = NCCCCCCCCCCC(=O)O; Dab = NCC[C@H](N)C(=O)O; Dap = NC[C@H](N)C(=O)O; Piv = CC(C)(C)C(=O)*

For the test, the target named is T1, PD-1/PD-L1 interaction (PE-labeled human PD-L1-Ig binding to Jurkat cell line over-expressing human PD-1) (Homo sapiens, UniProt Q15116).
T1 construct: expressed in transfected cells; host or cells: Jurkat
T1 sequence (Q15116 25-288): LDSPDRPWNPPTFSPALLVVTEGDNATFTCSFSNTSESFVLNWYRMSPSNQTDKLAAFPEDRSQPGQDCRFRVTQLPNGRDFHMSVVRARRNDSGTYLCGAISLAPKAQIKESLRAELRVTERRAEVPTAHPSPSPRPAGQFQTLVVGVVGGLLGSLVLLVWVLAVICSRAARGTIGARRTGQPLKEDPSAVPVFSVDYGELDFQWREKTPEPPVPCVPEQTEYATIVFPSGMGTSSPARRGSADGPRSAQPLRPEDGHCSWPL
Description: Jurkat-PD-1 Cell Binding High-Content Screening Assay (CBA). Particulars: Jurkat cell line over-expressing human PD-1; PE-labeled PD-L1-Ig 20 nM final; read-out: Jurkat hPD1-PDL1 IC50. Format: cell-based. The method in brief: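 Human PD-L1-Ig carrying a covalent PE label on its Ig tag serves as the probe, applied at 20 nM final to compound-treated (2 h, 37° C) Jurkat-hPD-1 cells in medium with 10% fetal calf serum. After one hour, fixation and nuclear staining precede high-content image analysis.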
In the case of `Cc1cccc(C[C@@H]2NC(=O)[C@H](CC(=O)O)NC(=O)[C@H](Cc3ccc(OCC(=O)O)cc3)NC(=O)[C@H](CN)NC(=O)CSC[C@@H](C(=O)N[C@@H](CCN)C(=O)NCCCCCCCCCCC(=O)O)NC(=O)[C@H]([C@H](C)O)NC(=O)[C@H](C(C)O)NC(=O)[C@H](CC3CCCCC3)NC(=O)[C@H](CCN)NC(=O)[C@@H](CC(C)C)NC(=O)[C@H](CCCN)NC(=O)[C@H](Cc3ccc(O)cc3)NC(=O)[C@H](Cc3ccc(-c4ccccc4)cc3)NC(=O)[C@H](Cc3ccc(OCC(=O)O)cc3)NC2=O)c1` (stereo partly drawn) [Compound 3595] ({CH2CO}-[Dap]Y(Carboxymethyl)D[Phe(3-Me)]Y(Carboxymethyl)[Bip]Y[Orn][dL][Dab][Cha][Thr(3ξ)][aThr]C[Dab][Aun]-OH; thioether N-14), the pIC50 is 6.82.

Regarding `CNC[C@@H]1NC(=O)CSC[C@@H](C(=O)N[C@@H](CCN)C(=O)NCCCCCCCCCCC(=O)O)NC(=O)[C@H](CO)NC(=O)[C@H](C(C)O)NC(=O)[C@H](CC2CCCCC2)NC(=O)[C@H](CCN)NC(=O)[C@@H](CC(C)C)NC(=O)[C@H](CCCN)NC(=O)[C@H](Cc2ccc(O)cc2)NC(=O)[C@H](Cc2ccc(-c3ccccc3)cc2)NC(=O)[C@H](CCCCNC(=O)C(C)(C)C)NC(=O)[C@H](Cc2cccc(C)c2)NC(=O)[C@H](CC(=O)O)NC(=O)[C@H](Cc2ccc(OCC(=O)O)cc2)NC1=O` (stereo partly drawn) [Compound 3596] ({CH2CO}-[Dap(Me)]Y(Carboxymethyl)D[Phe(3-Me)]K(Piv)[Bip]Y[Orn][dL][Dab][Cha][Thr(3ξ)]SC[Dab][Aun]-OH; thioether N-14), the pIC50 was 6.79.

On to `CCCC[C@H]1C(=O)N[C@@H](Cc2ccc(OCC(=O)O)cc2)C(=O)N[C@@H](CC(=O)O)C(=O)N[C@@H](Cc2cccc(C)c2)C(=O)N[C@@H](Cc2ccc(OCC(=O)O)cc2)C(=O)N[C@@H](Cc2ccc(-c3ccccc3)cc2)C(=O)N[C@@H](Cc2ccc(OCC(=O)O)cc2)C(=O)N[C@@H](CCCN)C(=O)N[C@H](CC(C)C)C(=O)N[C@@H](CCN)C(=O)N[C@@H](CC2CCCCC2)C(=O)N[C@@H](C(C)C)C(=O)N[C@@H](CO)C(=O)N[C@H](C(=O)N[C@@H](CCN)C(=O)NCCCCCCCCCCC(=O)O)CSCC(=O)N1C` [Compound 3598] ({CH2CO}-[NMeNle]Y(Carboxymethyl)D[Phe(3-Me)]Y(Carboxymethyl)[Bip]Y(Carboxymethyl)[Orn][dL][Dab][Cha]VSC[Dab][Aun]-OH; thioether N-14), for which the pIC50 is 7.86.

As for `Cc1cccc(C[C@@H]2NC(=O)[C@H](CC(=O)O)NC(=O)[C@H](Cc3ccc(OCC(=O)O)cc3)NC(=O)[C@H](CCN)NC(=O)CSC[C@@H](C(=O)N[C@@H](CCCCN)C(=O)NCCCCCCCCCCC(=O)O)NC(=O)[C@H](CCCCN)NC(=O)[C@H](C(C)O)NC(=O)[C@H](CC3CCCCC3)NC(=O)[C@H](CCN)NC(=O)[C@@H](CC(C)C)NC(=O)[C@H](CCCN)NC(=O)[C@H](Cc3ccc(O)cc3)NC(=O)[C@H](Cc3ccc(-c4ccccc4)cc3)NC(=O)[C@H](C(C)C)NC2=O)c1` (stereo partly drawn) [Compound 3599] ({CH2CO}-[Dab]Y(Carboxymethyl)D[Phe(3-Me)]V[Bip]Y[Orn][dL][Dab][Cha][Thr(3ξ)]KCK[Aun]-OH; thioether N-14), the pIC50 was 8.31.

In the case of `Cc1cccc(C[C@@H]2NC(=O)[C@H](CC(=O)O)NC(=O)[C@H](Cc3ccc(OCC(=O)O)cc3)NC(=O)[C@H](Cc3ccc(C(N)=O)cc3)NC(=O)CSC[C@@H](C(=O)N[C@@H](CCCCN)C(=O)NCCCCCCCCCCC(=O)O)NC(=O)[C@H](CCCCN)NC(=O)[C@H](C(C)O)NC(=O)[C@H](CC3CCCCC3)NC(=O)[C@H](CCN)NC(=O)[C@@H](CC(C)C)NC(=O)[C@H](CCCN)NC(=O)[C@H](Cc3ccc(O)cc3)NC(=O)[C@H](Cc3ccc(-c4ccccc4)cc3)NC(=O)[C@H](C(C)C)NC2=O)c1` (stereo partly drawn) [Compound 3600] ({CH2CO}-[Phe(4-CONH2)]Y(Carboxymethyl)D[Phe(3-Me)]V[Bip]Y[Orn][dL][Dab][Cha][Thr(3ξ)]KCK[Aun]-OH; thioether N-14), the pIC50 is 7.40.

`CC(=O)Nc1ccc(C[C@@H]2NC(=O)[C@H](Cc3cccc(C)c3)NC(=O)[C@H](CC(=O)O)NC(=O)[C@H](Cc3ccc(OCC(=O)O)cc3)NC(=O)[C@H](CN)NC(=O)CSC[C@@H](C(=O)N[C@@H](CCN)C(=O)NCCCCCCCCCCC(=O)O)NC(=O)[C@H](C(C)O)NC(=O)[C@H](C(C)C)NC(=O)[C@H](CC3CCCCC3)NC(=O)[C@H](CCN)NC(=O)[C@@H](CC(C)C)NC(=O)[C@H](CCCN)NC(=O)[C@H](Cc3ccc(NC(C)=O)cc3)NC(=O)[C@H](Cc3ccc(-c4ccccc4)cc3)NC2=O)cc1` (stereo partly drawn) [Compound 3601] ({CH2CO}-[Dap]Y(Carboxymethyl)D[Phe(3-Me)][Phe(4-NH2)](Ac)[Bip][Phe(4-NH2)](Ac)[Orn][dL][Dab][Cha]V[Thr(3ξ)]C[Dab][Aun]-OH; thioether N-14): the pIC50 was 7.42.

On to `CC(=O)NCCCC[C@@H]1NC(=O)[C@H](Cc2cccc(C)c2)NC(=O)[C@H](CC(=O)O)NC(=O)[C@H](Cc2ccc(OCC(=O)O)cc2)NC(=O)[C@H](Cc2ccc(NC(C)=O)cc2)NC(=O)CSC[C@@H](C(=O)N[C@@H](CCN)C(=O)NCCCCCCCCCCC(=O)O)NC(=O)[C@H](C(C)O)NC(=O)[C@H](C(C)C)NC(=O)[C@H](CC2CCCCC2)NC(=O)[C@H](CCN)NC(=O)[C@@H](CC(C)C)NC(=O)[C@H](CCCN)NC(=O)[C@H](CCCCNC(C)=O)NC(=O)[C@H](Cc2ccc(-c3ccccc3)cc2)NC1=O` (stereo partly drawn) [Compound 3602] ({CH2CO}-[Phe(4-NH2)](Ac)Y(Carboxymethyl)D[Phe(3-Me)]K(Ac)[Bip]K(Ac)[Orn][dL][Dab][Cha]V[Thr(3ξ)]C[Dab][Aun]-OH; thioether N-14), for which the negative-log IC50 (pIC50) was 7.64.

`Cc1cccc(C[C@@H]2NC(=O)[C@H](CC(=O)O)NC(=O)[C@H](Cc3ccc(OCC(=O)O)cc3)NC(=O)[C@H](CCN)NC(=O)CSC[C@@H](C(=O)N[C@@H](CCN)C(=O)NCCCCCCCCCCC(=O)O)NC(=O)[C@H](CO)NC(=O)[C@H](C(C)(C)O)NC(=O)[C@H](CC3CCCCC3)NC(=O)[C@H](CCN)NC(=O)[C@@H](CC(C)C)NC(=O)[C@H](CCCN)NC(=O)[C@H](Cc3ccc(O)cc3)NC(=O)[C@H](Cc3ccc(-c4ccccc4)cc3)NC(=O)[C@H](Cc3ccc(C(N)=O)cc3)NC2=O)c1` [Compound 3603] ({CH2CO}-[Dab]Y(Carboxymethyl)D[Phe(3-Me)][Phe(4-CONH2)][Bip]Y[Orn][dL][Dab][Cha][Val(3-OH)]SC[Dab][Aun]-OH; thioether N-14): the pIC50 was 8.04.

`Cc1cccc(C[C@@H]2NC(=O)[C@H](CC(=O)O)NC(=O)[C@H](Cc3ccc(OCC(=O)O)cc3)NC(=O)[C@H](CCN)NC(=O)CSC[C@@H](C(=O)N[C@@H](CCN)C(=O)NCCCCCCCCCCC(=O)O)NC(=O)[C@H](CO)NC(=O)[C@H](C(C)(C)O)NC(=O)[C@H](CC3CCCCC3)NC(=O)[C@H](CCN)NC(=O)[C@@H](CC(C)C)NC(=O)[C@H](CCCN)NC(=O)[C@H](Cc3ccc(C(N)=O)cc3)NC(=O)[C@H](Cc3ccc(-c4ccccc4)cc3)NC(=O)[C@H](Cc3ccc(OCC(=O)O)cc3)NC2=O)c1` [Compound 3604] ({CH2CO}-[Dab]Y(Carboxymethyl)D[Phe(3-Me)]Y(Carboxymethyl)[Bip][Phe(4-CONH2)][Orn][dL][Dab][Cha][Val(3-OH)]SC[Dab][Aun]-OH; thioether N-14): the pIC50 is 8.17.
